Assay results from PubChem BioAssay AID248 (DTP/NCI, 2004).
Inconclusive results and toxic doses are left out. Rule as the data show it: active = T/C of 150% or more; inactive = T/C below 125%.

Test system: L1210 leukemia ip in BDF1 mice, survival T/C
Experiment: NCI In Vivo Anticancer Drug Screen. Data for tumor model L1210 Leukemia (intraperitoneal) in B6D2F1 (BDF1) mice
Details: endpoint: mean survival time, higher = longer survival
Outline: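 Transplantable tumor model; survival measured in treated vs vehicle control mice. Value = treated/control.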

[1] = dose: 12.5 mg/kg/injection, schedule: Q01DX009 (ip), vehicle: Klucel (hydroxypropylcellulose) (HPC)
[2] = dose: 25.0 mg/kg/injection, schedule: Q01DX009 (ip), vehicle: Klucel (hydroxypropylcellulose) (HPC)
[3] = dose: 50.0 mg/kg/injection, schedule: Q01DX009 (ip), vehicle: Klucel (hydroxypropylcellulose) (HPC)
[4] = dose: 100.0 mg/kg/injection, schedule: Q01DX009 (ip), vehicle: Klucel (hydroxypropylcellulose) (HPC)
[5] = dose: 200.0 mg/kg/injection, schedule: Q01DX009 (ip), vehicle: Klucel (hydroxypropylcellulose) (HPC)
[6] = dose: 400.0 mg/kg/injection, schedule: Q01DX009 (ip), vehicle: Klucel (hydroxypropylcellulose) (HPC)
[7] = dose: 50.0 mg/kg/injection, schedule: Q01DX001 (ip), vehicle: carboxymethylcellulose (CMC)
[8] = dose: 100.0 mg/kg/injection, schedule: Q01DX001 (ip), vehicle: carboxymethylcellulose (CMC)
[9] = dose: 200.0 mg/kg/injection, schedule: Q01DX001 (ip), vehicle: carboxymethylcellulose (CMC)
[10] = dose: 400.0 mg/kg/injection, schedule: Q01DX001 (ip), vehicle: carboxymethylcellulose (CMC)
[11] = dose: 100.0 mg/kg/injection, schedule: Q04DX002 (ip), vehicle: saline with Tween-80
[12] = dose: 200.0 mg/kg/injection, schedule: Q04DX002 (ip), vehicle: saline with Tween-80
[13] = dose: 400.0 mg/kg/injection, schedule: Q04DX002 (ip), vehicle: saline with Tween-80
[14] = dose: 100.0 mg/kg/injection, schedule: Q04DX003 (ip), vehicle: Klucel (hydroxypropylcellulose) (HPC)
[15] = dose: 200.0 mg/kg/injection, schedule: Q04DX003 (ip), vehicle: Klucel (hydroxypropylcellulose) (HPC)
[16] = dose: 400.0 mg/kg/injection, schedule: Q04DX003 (ip), vehicle: Klucel (hydroxypropylcellulose) (HPC)
[17] = dose: 200.0 mg/kg/injection, schedule: Q01DX009 (ip), vehicle: saline with Tween-80

Measured: T/C

O=C(O)c1ccc(CCCCl)cc1
inactive: dose: 12.5 mg/kg/injection, schedule: Q01DX001 (ip), vehicle: Klucel (hydroxypropylcellulose) (HPC) 98 % of control | dose: 25.0 mg/kg/injection, schedule: Q01DX001 (ip), vehicle: Klucel (hydroxypropylcellulose) (HPC) 103 % of control | dose: 50.0 mg/kg/injection, schedule: Q01DX001 (ip), vehicle: Klucel (hydroxypropylcellulose) (HPC) 94 % of control

COc1cc(C(=O)CCC(=O)O)c(OC)c(CBr)c1CBr
inactive: dose: 5.0 mg/kg/injection, schedule: Q01DX001 (ip), vehicle: other 101 % of control | dose: 10.0 mg/kg/injection, schedule: Q01DX001 (ip), vehicle: other 110 % of control | dose: 20.0 mg/kg/injection, schedule: Q01DX001 (ip), vehicle: other 101 % of control

Clc1cc2c(cc1Cl)OB(c1ccccc1)O2
inactive: dose: 100.0 mg/kg/injection, schedule: Q04DX003 (ip), vehicle: alcohol 113 % of control | dose: 200.0 mg/kg/injection, schedule: Q04DX003 (ip), vehicle: alcohol 106 % of control

COc1ccccc1N1CCN(CCCC(O)c2ccc(F)cc2)CC1 (configuration not stated)
inactive: dose: 10.0 mg/kg/injection, schedule: Q04DX003 (ip), vehicle: Klucel (hydroxypropylcellulose) (HPC) 91 % of control | [1] 98 % of control | dose: 20.0 mg/kg/injection, schedule: Q04DX003 (ip), vehicle: Klucel (hydroxypropylcellulose) (HPC) 98 % of control | [2] 100 % of control | dose: 40.0 mg/kg/injection, schedule: Q04DX003 (ip), vehicle: Klucel (hydroxypropylcellulose) (HPC) 90 % of control | [3] 98 % of control

Oc1ccccc1OCCOCCOc1ccccc1O
inactive: dose: 100.0 mg/kg/injection, schedule: Q04DX002 (ip), vehicle: other 90 % of control

CCOc1cc(/C=N/NC(=O)c2ccccc2NC(=O)c2ccccc2Cl)ccc1O
inactive: [4] 90 % of control | [5] 95 % of control | [6] 92 % of control

CC(/C=C\c1ccc([N+](=O)[O-])cc1)=N\NC(=O)c1ccncc1
inactive: dose: 100.0 mg/kg/injection, schedule: Q04DX003 (ip), vehicle: saline with Tween-80 98 % of control | dose: 200.0 mg/kg/injection, schedule: Q04DX003 (ip), vehicle: saline with Tween-80 98 % of control | dose: 400.0 mg/kg/injection, schedule: Q04DX003 (ip), vehicle: saline with Tween-80 96 % of control

NS(=O)(=O)Cc1ccccc1
inactive: dose: 25.0 mg/kg/injection, schedule: Q01DX009 (ip), vehicle: saline 92 % of control | dose: 50.0 mg/kg/injection, schedule: Q01DX009 (ip), vehicle: saline 94 % of control | dose: 100.0 mg/kg/injection, schedule: Q01DX009 (ip), vehicle: saline 100 % of control

C[n+]1cccc(C#N)c1
inactive: dose: 37.5 mg/kg/injection, schedule: Q04DX003 (ip), vehicle: saline 100 % of control | dose: 75.0 mg/kg/injection, schedule: Q01DX001 (ip), vehicle: saline 106 % of control | dose: 75.0 mg/kg/injection, schedule: Q04DX003 (ip), vehicle: saline 107 % of control | dose: 150.0 mg/kg/injection, schedule: Q01DX001 (ip), vehicle: saline 106 % of control | dose: 150.0 mg/kg/injection, schedule: Q04DX003 (ip), vehicle: saline 91 % of control

O=C(COc1ccc(Cl)c(Cl)c1)NCc1cccc(NC(=O)c2cccc(S(=O)(=O)F)c2)c1
inactive: dose: 100.0 mg/kg/injection, schedule: Q01DX001 (ip), vehicle: Klucel (hydroxypropylcellulose) (HPC) 107 % of control | dose: 200.0 mg/kg/injection, schedule: Q01DX001 (ip), vehicle: Klucel (hydroxypropylcellulose) (HPC) 98 % of control | dose: 400.0 mg/kg/injection, schedule: Q01DX001 (ip), vehicle: Klucel (hydroxypropylcellulose) (HPC) 91 % of control

COc1cc(N(CCCl)CCCl)ccc1C=Nc1ccc(-n2ccnc2)cc1
inactive: dose: 68.8 mg/kg/injection, schedule: Q04DX002 (ip), vehicle: Klucel (hydroxypropylcellulose) (HPC) 98 % of control | dose: 137.5 mg/kg/injection, schedule: Q04DX002 (ip), vehicle: Klucel (hydroxypropylcellulose) (HPC) 98 % of control | dose: 275.0 mg/kg/injection, schedule: Q04DX002 (ip), vehicle: Klucel (hydroxypropylcellulose) (HPC) 102 % of control

COC(=O)[CH]([Hg][O]C(C)=O)C(OC)c1ccccc1 (configuration not stated)
inactive: dose: 3.0 mg/kg/injection, schedule: Q04DX002 (ip), vehicle: carboxymethylcellulose (CMC) 86 % of control | dose: 6.0 mg/kg/injection, schedule: Q04DX002 (ip), vehicle: carboxymethylcellulose (CMC) 93 % of control | dose: 12.5 mg/kg/injection, schedule: Q04DX002 (ip), vehicle: carboxymethylcellulose (CMC) 94 % of control | dose: 25.0 mg/kg/injection, schedule: Q04DX002 (ip), vehicle: carboxymethylcellulose (CMC) 98 % of control

COc1cc(N(CCCl)CCCl)ccc1C=Nc1cccc(Cl)c1
inactive: [7] 114 % of control | [8] 111 % of control | [9] 100 % of control | [10] 100 % of control

O=C(Nc1cc([N+](=O)[O-])ccc1Cl)c1ccc(F)cc1
inactive: dose: 100.0 mg/kg/injection, schedule: Q04DX002 (ip), vehicle: Klucel (hydroxypropylcellulose) (HPC) 102 % of control | dose: 200.0 mg/kg/injection, schedule: Q04DX002 (ip), vehicle: Klucel (hydroxypropylcellulose) (HPC) 98 % of control | dose: 400.0 mg/kg/injection, schedule: Q04DX002 (ip), vehicle: Klucel (hydroxypropylcellulose) (HPC) 102 % of control

CCN(Cc1ccccc1)C(=O)NC(C)(C)C
inactive: [4] 98 % of control | [5] 95 % of control

O=C1c2cccc([N+](=O)[O-])c2C(=O)c2c1cccc2[N+](=O)[O-]
inactive: [11] 93 % of control | [12] 104 % of control | [13] 100 % of control

Cc1ccc(NC(=O)OC(C)C)c(C)c1
inactive: [4] 100 % of control | [5] 100 % of control | [6] 96 % of control

COc1ccc(C(=O)CCCCl)cc1
inactive: [4] 102 % of control | [14] 107 % of control | [5] 102 % of control | [15] 96 % of control | [6] 89 % of control | [16] 102 % of control

CC(O)(C(=O)O)c1ccc(Cl)c(Cl)c1 (configuration not stated)
inactive: dose: 12.5 mg/kg/injection, schedule: Q01DX009 (ip), vehicle: saline with Tween-80 93 % of control | dose: 25.0 mg/kg/injection, schedule: Q01DX009 (ip), vehicle: saline with Tween-80 93 % of control | dose: 50.0 mg/kg/injection, schedule: Q01DX009 (ip), vehicle: saline with Tween-80 89 % of control | [17] 100 % of control

O=C(N/N=C/c1ccc2c(c1)OCO2)c1ccco1
inactive: dose: 100.0 mg/kg/injection, schedule: Q01DX001 (ip), vehicle: other 96 % of control | dose: 200.0 mg/kg/injection, schedule: Q01DX001 (ip), vehicle: other 93 % of control | dose: 400.0 mg/kg/injection, schedule: Q01DX001 (ip), vehicle: other 98 % of control

CC(=O)OCN1C(=O)N(COC(C)=O)C(c2ccccc2)(c2ccccc2)C1=O
inactive: dose: 100.0 mg/kg/injection, schedule: Q01DX009 (ip), vehicle: saline with Tween-80 102 % of control | [11] 102 % of control | [17] 87 % of control | [12] 102 % of control | [13] 106 % of control

Cc1cc(C)c(-n2c(C)nc3ccccc3c2=O)c([N+](=O)[O-])c1
inactive: [1] 96 % of control | [2] 104 % of control | [3] 89 % of control | [4] 109 % of control

CCOC(=O)/C(C#N)=C/c1ccc(O)c(OC)c1
inactive: [4] 101 % of control | [14] 102 % of control | [5] 94 % of control | [15] 96 % of control | [6] 89 % of control | [16] 95 % of control

Cc1ccc(S(=O)(=O)N(CCCc2c(C)nc(N)nc2NCCCc2ccccc2)c2ccccc2)cc1
inactive: dose: 50.0 mg/kg/injection, schedule: Q01DX001 (ip), vehicle: saline with Tween-80 98 % of control | dose: 100.0 mg/kg/injection, schedule: Q01DX001 (ip), vehicle: saline with Tween-80 98 % of control | dose: 200.0 mg/kg/injection, schedule: Q01DX001 (ip), vehicle: saline with Tween-80 90 % of control

COc1ccc(N=O)c(O)c1
inactive: [2] 104 % of control | [7] 93 % of control | [3] 103 % of control | [8] 97 % of control | [4] 106 % of control | [9] 104 % of control | [10] 101 % of control
